From patent US20070254837A1, “Treatment for Necrotizing Enterocolitis” (UNIVERSITY TECHNOLOGIES INTERNATIONAL INC., priority 2003, published 2007)
Entries after “also recorded” stand apart in the source; their conditions may differ.

Assays:
[1] = test system: neonatal rat model of necrotizing enterocolitis; experiment: Neonatal rat model of necrotizing enterocolitis: clinical (macroscopic) assessment of small intestine on autopsy; assay type: in vivo; conditions: for discoloration (visual assessment of luminal blood) / stenosis: FIG. 3; for clinical scoring on autopsy (overall clinical appearance, pathology/damage scores): FIG. 2
Method: (§1) These studies utilized a well-validated neonatal rat model of necrotizing enterocolitis (14). Briefly, neonatal Sprague-Dawley rats (Charles River Laboratories Inc., Wilmington, Mass.) were collected from their mothers immediately after birth, prior to suckling maternal milk. Animals were weighed and placed in infant incubators to control body temperature. Subsequently, rats were hand fed via the orogastric route 0.1 ml of rat milk substitute (RMS) consisting of prepared infant formula (Esbilac formula, Pet-Ag, New Hampshire, Ill.) plus or minus the therapeutic supplement every three hours. EGF (Austral Biologics, San Ramon, Calif.) was produced by genetically engineered yeast and purified by sequential chromatography and reverse phase high pressure liquid chromatography (HPLC) and determined to be >97% pure by N-terminal amino acid sequencing, amino acid composition, HPLC analysis and SDS gel electrophoresis. Arginine (L-arginine hydrochloride, crystalline, ICN Biomedicals Inc, Aurora, Ohio) was produced by a proprietary synthetic process. EGF (100 ng/ml) and L-arginine (1.35-2.7 mg/ml) were admininstered based on daily feed intake to achieve a dose of 1.5 mmol/kg/day of L-arginine (in standardized units these doses work out to ˜20 ug EGF/kg/day and ˜316 mg L-arginine/kg/day, for a ratio of about 1:472 500 mole/mole). The EGF and L-arginine were gently vortexed and thoroughly mixed into the Esbilac infant formula. After 48 hrs of feeding, volumes were advanced slowly to 0.3 ml as tolerated. To induce clinical disease rats were stressed twice daily with asphyxia by breathing 100% nitrogen gas for 60 sec followed by cold stress at 4° C. for 10 min starting one hour after birth.
Six separate experimental groups were studied: unstressed rats artificially fed with EGF-free rat milk substitute (RMS) (Control, n=10); stressed rats that were dam-fed (Control (s), n=7); stressed rats artificially fed EGF-free RMS (NEC, n=10); stressed rats artificially fed RMS supplemented with 100 ng/ml recombinant human EGF (EGF-NEC, n=6); stressed rats artificially fed RMS supplemented with 1.5 mmol L-arginine/kg/day (ARG-NEC, n=6); and stressed rats artificially fed RMS supplemented with 100 ng/ml recombinant human EGF+1.5 mmol L-arginine/kg/day (EGF/ARG-NEC, n=8). Animals that developed abdominal distension, respiratory distress or lethargy during the 96-hour course of the experiment were terminated. After 96 hours all surviving animals were killed by decapitation and the small intestine removed for further analysis.
(§2) Body weights and tail lengths were recorded daily, and twice daily urination and defecation was induced by gentle stimulation of the anogenital region and stool collected for future analysis. The small intestine was visually assessed for clinical signs of NEC such as intestinal hemorrhage and discoloration, and ileal distension and stenosis. The small intestine was then divided into two halves and 2-3 cm of tissue from the distal segment (ileum) fixed, embedded in paraffin, and counterstained with hematoxylin and eosin for histological evaluation of NEC (14). Histology was evaluated in a blinded manner and graded as follows: normal (0) showing no damage; mild (+1) showing slight submucosal and/or lamina propria separation (+2); moderate (+2) displaying moderate separation of the submucosa and/or lamina propria, and/or edema in the submucosal and muscular layers; severe (+3) showing severe separation of submucosa and/or lamina propria, and/or severe edema in the submucosal and muscular layers, and regional villus sloughing; necrosis (+4) displaying loss of villi and necrosis (14). The length of the remaining ileum was measured and the tissue homogenized in 2.5 mM ethylenediaminetetraacetic acid (EDTA), snap frozen in liquid nitrogen, and stored at […] for later analysis of lactase activity (21) and ileal protein (5) and DNA (3 1) content.
(§3) Data are expressed as means ±SE. […]

[2] = test system: neonatal rat model of necrotizing enterocolitis; experiment: Neonatal rat model of necrotizing enterocolitis: histological evaluation of distal ileal tissue; assay type: in vivo; conditions: for histological damage scores: distal ileal tissue, compared to NEC animals, FIG. 5; for appearance of ileal tissue sections (photomicrographs): distal ileum, hematoxylin and eosin, FIG. 4
Method: as §1, with “To induce clinical disease rats were stressed twice daily with asphyxia by breathing 100% nitrogen gas for 60 sec followed by cold stress at 4° C. for 10 min starting one hour after birth.” left out
as §2, with “The small intestine was then divided into two halves and 2-3 cm of tissue from the distal segment (ileum) fixed, embedded in paraffin, and counterstained with hematoxylin and eosin for histological evaluation of NEC (14).” left out
as §3

lactase = experiment: Neonatal rat model of necrotizing enterocolitis: total lactase activity in distal ileal tissue; assay type: in vivo; conditions: compared to untreated NEC rats, FIG. 6
Method: These studies utilized a well-validated neonatal rat model of necrotizing enterocolitis (14). Briefly, neonatal Sprague-Dawley rats (Charles River Laboratories Inc., Wilmington, Mass.) were collected from their mothers immediately after birth, prior to suckling maternal milk. Animals were weighed and placed in infant incubators to control body temperature. Subsequently, rats were hand fed via the orogastric route 0.1 ml of rat milk substitute (RMS) consisting of prepared infant formula (Esbilac formula, Pet-Ag, New Hampshire, Ill.) plus or minus the therapeutic supplement every three hours. EGF (Austral Biologics, San Ramon, Calif.) was produced by genetically engineered yeast and purified by sequential chromatography and reverse phase high pressure liquid chromatography (HPLC) and determined to be >97% pure by N-terminal amino acid sequencing, amino acid composition, HPLC analysis and SDS gel electrophoresis. […]
Body weights and tail lengths were recorded daily, and twice daily urination and defecation was induced by gentle stimulation of the anogenital region and stool collected for future analysis. The small intestine was visually assessed for clinical signs of NEC such as intestinal hemorrhage and discoloration, and ileal distension and stenosis. […]
as §3

[3] = test system: neonatal piglet model of NEC; conditions: infusion; cited from earlier work
[4] = test system: necrotizing enterocolitis; conditions: 152 infants, birthweight ≦1250 g, gestational age ≦32 weeks; dietary L-arginine supplementation; reduced from 27%; cited from earlier work
[5] = test system: necrotizing enterocolitis; conditions: cited from earlier work
[6] = stressed neonatal rats, RMS with EGF 100 ng/ml and/or L-arginine 1.5 mmol/kg/day, 96 h, compared to untreated (NEC) group

N=C(N)NCCCC(N)C(=O)O (stereo not shown) [Arg, 2-amino-5-guanidinovaleric acid]
discoloration (visual assessment of luminal blood) ([1]; compared to controls): significantly elevated
stenosis ([1]; compared to controls): significant stenosis
discoloration (visual assessment of luminal blood) ([1]; compared to untreated group): significantly less discoloration than observed in the untreated group
discoloration (visual assessment of luminal blood) ([1]; compared to untreated group, listed as L-arginine): decreased the appearance of blood in the lumen
clinical scoring on autopsy (overall clinical appearance, pathology/damage scores) [1, 6]: did not differ
histological damage scores [2]: did not differ
appearance of ileal tissue sections (photomicrographs) [2]: Significant damage
total lactase activity (lactase): did not alter the deficit in lactase activity
intestinal injury [3]: markedly reduced intestinal injury
incidence of NEC [4]: 7%

EGF: 53-amino acid protein, human EGF sequence SEQ ID NO: 1, produced by genetically engineered yeast (Austral Biologics)
discoloration (visual assessment of luminal blood) ([1]; compared to controls): significantly elevated
stenosis ([1]; compared to controls): significant stenosis
clinical scoring on autopsy (overall clinical appearance, pathology/damage scores) ([1]; same treatment, compared to control animals): still significantly increased over control animals
clinical scoring on autopsy (overall clinical appearance, pathology/damage scores) [1, 6]: significantly less than that observed in the untreated (NEC) group; also recorded: some protection against physical damage to the intestine
histological damage scores [2]: did not differ
appearance of ileal tissue sections (photomicrographs) [2]: Significant damage
total lactase activity (lactase): did not alter the deficit in lactase activity
protective effect ([5]; EGF at 500 ng/ml): protective effect
clinical benefit ([5]; EGF at physiological concentration of 100 ng/ml): no significant clinical benefit
